Reference: publication PMC10051811, “Plasma and Cerebrospinal Fluid Concentrations of Micafungin Administered at High Doses in Critically Ill Infants with Systemic Candidiasis: A Pooled Analysis of Two Studies” (Pharmaceuticals, 2023)
Read-outs that look alike come from different tables or passages of the source. *1 amine or outer side, *2 acyl side, *3 side chain or, on linkers, in order; H or OH if unused. Where a SMILES comes first, the peptide text is derived from it. Bridges are numbered along the chain shown (N, C = ends). [ ]: non-standard residue; d: D form. The star is where a group is joined. hTyr(3S-OH,4S-OH,3'-OSO3H) = N[C@H](C(=O)O)[C@H](O)[C@@H](O)c1ccc(O)c(OS(=O)(=O)O)c1; Orn(4R-OH,5R-OH) = O=C([C@H](C[C@@H](O)[C@@H](O)N[*:3])N[*:1])[*:2]; Pro(3S-OH,4S-Me) = C[C@H]1CN[C@H](C(=O)O)[C@H]1O; X1 = CCCCCOc1ccc(-c2cc(-c3ccc(C(=O)*)cc3)no2)cc1; Gln(3R-OH) = NC(=O)C[C@@H](O)[C@H](N)C(=O)O; Hyp = O=C(O)[C@@H]1C[C@@H](O)CN1

Key:
[1] = tested on: rats; settings: rats treated for 3 months or more, dose of 150 mg/day (eight times the highest recommended human dose); cited from earlier work
[2] = tested on: invasive candidiasis; assay: Microbiological and clinical success of micafungin therapy in infants with invasive candidiasis; type: in vivo, human; settings: 8-15 mg/kg/day iv
Protocol: For this pooled analysis, we included data from a total of fifty-three neonates enrolled, aged ≤180 days (from the gestational age corrected at 37 weeks), affected with proven or suspected systemic candidiasis, whereby 3 of them had meningitis, who were treated for at least 14 days with micafungin (Mycamine®) at a dosage ranging from 8 to 15 mg/kg/day intravenously.
(§1) The dosage was formulated as a 2 mg/mL solution in 0.9% saline solution and administered intravenously over 1 h once daily. Infants who died within the first 48 h and those with acute or chronic hepatic diseases and/or known hypersensitivity to echinocandins were excluded. Each study with specific inclusion/exclusion criteria and definitions has been described in detail elsewhere.

[3] = Micafungin plasma pharmacokinetics in neonates and young infants (HPLC); type: in vivo, human; settings: for level at 1 h: read-out: Plasma values after 1 h; for level at 8 h: read-out: Plasma values after 8 h; for level at -1 h: read-out: Plasma values before infusion
Protocol: as §1
Micafungin plasma and CSF concentrations were measured 1 h before and 1, 2, and 8 h after the end of the infusion. Sampling overlapped with those required for the clinical monitoring of these critical children. Blood samples were collected via heel puncture, using 0.3 mL capillary microtubes with EDTA, between Days 3 and 10 of micafungin therapy. Five minutes prior to sampling, the heel was warmed with a hot compress (40 °C), and puncture was performed using a Gentleheel incision device (Cardinal Health, Dublin, OH, USA) at alternate sites per timepoint. Blood picked up was centrifuged at 3000× g, and the plasma residue was stored at 4 °C until analyzed within 6 h or frozen at −20 °C and analyzed within 7 days, as previously reported. Drug concentrations were measured via high-performance liquid chromatography (HPLC). An HPLC method with a diode array detector was validated to fine-tune the measurement on small amounts of plasma (0.3 mL whole blood).
Moreover, we assessed the optimal dosage to obtain systemic drug exposure equivalent to that considered to be effective in adult patients. Systemic drug exposure was assessed via the area under the curve for 24 h (AUC0–24), the plasma clearance (CL), and the half-life. Results were stratified according to chronological age.

[4] = cited from earlier work
From the text: This mechanism of action explains their characteristics of high specificity, even against resistant species of Candida. Micafungin is primarily eliminated via biliary excretion (90%), while the route of elimination via the kidney appears to be of minor importance in humans. Micafungin is bound to plasma proteins up to 99.5%. The binding to plasma proteins seems to be a ...

[5] = rabbit model of neonatal HCME; highest concentrations within meninges and choroid; ref 2 (Hope et al.); cited from earlier work
From the text: In extremely low-birth-weight infants (<1 kg at birth) with invasive candidiasis, the probability of the central nervous system involvement during infection varies from 45% to 63% of cases. Micafungin concentration values in CSF are difficult to obtain if an external shunt has not been placed previously. Moreover, interpreting these values in vivo is not easy, considering that the fungal involvement of the central nervous system in neonatal age is typically hematogenous Candida meningoencephalitis (HCME). Hope et al. studied the pharmacokinetics and pharmacodynamics of micafungin in a r ...

[6] = ref 1 (Yanni et al.), cited from earlier work
Protocol: Yanni et al. observed an increased clearance of micafungin in infants and children: 40–80 mL/h/kg in premature infants and 20 mL/h/kg in children >4 months of age.

[7] = Treatment-emergent adverse events (TEAEs) in treated infants; type: in vivo, human
Protocol: In order to evaluate drug safety, we analyzed treatment-emergent adverse effects (TEAEs). TEAEs were defined as an adverse effect experienced any time during the study’s drug administration to 72 h after the last dose of the study drug. A reasonable possibility that the event could have been caused by the study drug was assessed by the investigators; if the relationship was missing, it was considered to be drug-related.

[8] = human, iv, 7 mg/kg/day, Patient 1, dose 7 mg/kg/day iv, HPLC
[9] = human, iv, 8 mg/kg/day, Patient 3, dose 8 mg/kg/day iv, HPLC
[10] = human, iv, 10 mg/kg/day, Patient 1, dose 10 mg/kg/day iv, HPLC
[11] = human, iv, 10 mg/kg/day, Patient 2, dose 10 mg/kg/day iv, HPLC
[12] = human, iv, 15 mg/kg/day, Patient 2, dose 15 mg/kg/day iv, HPLC

## CCCCCOc1ccc(-c2cc(-c3ccc(C(=O)N[C@H]4C[C@@H](O)[C@@H](O)NC(=O)[C@@H]5[C@@H](O)[C@@H](C)CN5C(=O)[C@H]([C@H](O)CC(N)=O)NC(=O)[C@H]([C@H](O)[C@@H](O)c5ccc(O)c(OS(=O)(=O)O)c5)NC(=O)[C@@H]5C[C@@H](O)CN5C(=O)[C@H]([C@@H](C)O)NC4=O)cc3)no2)cc1 [micafungin] (X1-[Orn(4R-OH,5R-OH)]T[Hyp][hTyr(3S-OH,4S-OH,3'-OSO3H)][Gln(3R-OH)][Pro(3S-OH,4S-Me)]; lactam 1-C)
[1]
  Hepatotoxicity finding in rats: development of hepatocellular tumors
[2]; infants with systemic candidiasis
  Clinical recovery: all infants clinically recovered
[2]; subjects with invasive candidiasis, mean treatment duration 16.7 days, 95% CI = 51.2–97.9
  Microbiological success of the therapy: 83.3%
[3]; age 0 to ≤28 days (n = 16), 8-15 mg/kg/day iv, mean ± SD, SD
  half-life: 13.5 ± 7.6 h
[3]; age >28 days ≤120 days (n = 23), 8-15 mg/kg/day iv, mean ± SD, SD
  Clearance/weight: 0.6 ± 0.167 mL/min/kg
[3]; [8]
  level at 1 h: 15600 ng/mL
  level at 8 h: 8900 ng/mL
  level at -1 h: 2900 ng/mL
[3]; [9]
  level at 1 h: 27000 ng/mL
  level at 8 h: 16800 ng/mL
  level at -1 h: 9120 ng/mL
[3]; [10]
  level at 1 h: 21700 ng/mL
  level at 8 h: 6580 ng/mL
  level at -1 h: 3200 ng/mL
[3]; [11]
  level at 1 h: 17400 ng/mL
  level at 8 h: 8900 ng/mL
  level at -1 h: 6700 ng/mL
[3]; [12]
  level at 1 h: 21900 ng/mL
  level at 8 h: 12200 ng/mL
  level at -1 h: 5800 ng/mL
[3]; human, iv, age 0 to ≤28 days (n = 16), 8-15 mg/kg/day iv over 1 h once daily, HPLC, mean ± SD, SD, read-out: Clearance (converted)
  clearance: 1.2 mL/min
[3]; human, iv, age 0 to ≤28 days (n = 16), 8-15 mg/kg/day iv, mean ± SD, SD, read-out: Clearance/weight (converted)
  clearance: 0.6 mL/min/kg
[3]; human, iv, age >28 days ≤120 days (n = 23), 8-15 mg/kg/day iv over 1 h once daily, HPLC, mean ± SD, SD, read-out: Clearance (converted)
  clearance: 1.45 mL/min
[3]; human, iv, age >28 days ≤120 days (n = 23), 8-15 mg/kg/day iv, mean ± SD, SD, read-out: Half-life (converted)
  half-life: 13.4 ± 4.3 h
[3]; human, iv, age >120 days (n = 13), 8-15 mg/kg/day iv over 1 h once daily, HPLC, mean ± SD, SD, read-out: Clearance (converted)
  clearance: 1.82 mL/min
[3]; human, iv, age >120 days (n = 13), 8-15 mg/kg/day iv, mean ± SD, SD, read-out: Clearance/weight (converted)
  clearance: 0.467 mL/min/kg
[3]; human, iv, age >120 days (n = 13), 8-15 mg/kg/day iv, mean ± SD, SD, read-out: Half-life (converted)
  half-life: 14.4 ± 4.2 h
[3]; human, iv, plasma AUC0–24, age 0 to ≤28 days (n = 16), 8-15 mg/kg/day iv, mean ± SD, SD
  AUC(0-t): 259 ± 92.7 µg·h/mL
[3]; human, iv, plasma AUC0–24, age >28 days ≤120 days (n = 23), 8-15 mg/kg/day iv, mean ± SD, SD
  AUC(0-t): 237 ± 63.9 µg·h/mL
[3]; human, iv, plasma AUC0–24, age >120 days (n = 13), 8-15 mg/kg/day iv, mean ± SD, SD
  AUC(0-t): 346 ± 145 µg·h/mL
[4]
  Bound to plasma proteins: up to 99.5%
[4]; humans
  Elimination via biliary excretion: 90%
[5]
  Detection of micafungin within the CSF: not reliably detected
[6]; children >4 months of age
  clearance: 0.333 mL/min/kg
[6]; premature infants
  clearance: 0.667 to 1.33 mL/min/kg
[7]; 53 infants, 8-15 mg/kg/day iv, thirty-four patients
  Patients with overall treatment-emergent adverse events (TEAEs): 64.2%
[7]; 53 infants, one patient, drug-related TEAE
  Patients with transient hypertransaminasaemia: 1.9%
[7]; 53 infants, three TEAEs
  Drug-related TEAEs (not serious): 5.7%
[7]; 53 infants, three cases
  TEAEs leading to death (septic shock, not drug-related): 5.7%
[7]; 53 infants, two patients, drug-related TEAE
  Patients with transiently increased levels of gamma-glutamyltransferase: 3.8%
[7]; high doses 8–15 mg/kg/day in neonates and infants
  Serious adverse events related to the therapy: no serious adverse events
